The source of these data is PubChem BioAssay (NCI).

What all share (assay): NCI tumour cell line growth inhibition, 48 h
Assay [1] concerns SK-MEL-5 melanoma.
In assay [2] the test system is EKVX NSCLC.
The test system of assay [3] is CCRF-CEM leukemia.
For assay [4], the system named is HT29 colon.
Assay [5] deals with LOX IMVI melanoma.
For assay [6], the system named is SK-MEL-28 melanoma.
For assay [7], the system named is HCT-116 colon.
Assay [8] relates to SK-OV-3 ovarian.
The test system of assay [9] is UACC-257 melanoma.
Assay [10] concerns A549 NSCLC.
Assay [11] concerns HOP-62 NSCLC.
The subject of assay [12] is SNB-19 CNS.
Assay [13] deals with BT-549 breast.
The subject of assay [14] is MDA-N.
For assay [15], the system named is UO-31 renal.
For assay [16], the system named is TK-10 renal.
The subject of assay [17] is OVCAR-8 ovarian.
The subject of assay [18] is NCI-H226 lung.

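96-well plates; 48 h exposure; 5 concentrations. Endpoints by linear interpolation between flanking doses. Not reached: highest tested concentration assigned. TGI marks complete inhibition of growth.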

Turning to `NNC(=S)NCCNC(=S)NN`, the TGI in assay [1], in assay [2], in assay [3], in assay [4], in assay [5] and in assay [6] was more than 100 µM in each case. The TGI in assay [7], in assay [8], in assay [9], in assay [10], in assay [11] and in assay [12] was more than 100 µM each time. Moreover, the TGI in assay [13], in assay [14] and in [15] was more than 100 µM in each case.
In the case of `O=C(/C=C/c1cccc(Oc2ccccc2)c1)NCc1ccc(C(=O)NCCc2ccccc2)cc1`, the TGI in [1], in assay [2], in assay [4], in assay [5], in [16] and in assay [6] was more than 100 µM throughout. For the same compound, the TGI in assay [7], in assay [17], in [8], in assay [9], in [10] and in assay [11] was more than 100 µM each time. Also, the TGI in [12], in assay [13], in [18], in assay [14] and in [15] was more than 100 µM in each case.
With `Clc1ccc(-c2cn3c(nc4ccccc43)c(/C=C/c3ccco3)n2)cc1`, the TGI in assay [1] is more than 100 µM; in [4], more than 100 µM; in assay [5], more than 100 µM; in assay [16], 82 µM; in assay [6] it was more than 100 µM; in [7], more than 100 µM. Also, the TGI in assay [8], in assay [9], in assay [10], in assay [11], in assay [12] and in assay [13] was more than 100 µM in each case. Besides, the TGI in [18], in [14] and in assay [15] was more than 100 µM each time.
With `COc1c(-c2nc3nc(N4CCN(C)CC4)ccc3[nH]2)cc(OC)c2c1nc(COC(C)=O)n2C`, the TGI in assay [1] was more than 100 µM; in assay [2], more than 100 µM; in assay [4] it was more than 100 µM; in [5], more than 100 µM; in assay [16] it was 0.0263 µM; in assay [7] it was more than 100 µM. The TGI in [17], in assay [8], in assay [9], in assay [10], in assay [11] and in assay [12] was more than 100 µM each time. The TGI in assay [13], in [18], in assay [14] and in [15] was more than 100 µM throughout.
As for `O=C(CCC=C(S(=O)(=O)c1ccccc1)S(=O)(=O)c1ccccc1)c1ccccc1`, the TGI in [1] was determined as 19.8 µM; in assay [2] it was 30.5 µM; in assay [4] it was 17.5 µM; in [5], 10.3 µM; in assay [16] it was 19.3 µM; in [6], 34.6 µM. Besides, the TGI was 13.9 µM in [7]; 16.7 µM in assay [17]; more than 100 µM in assay [8]; 23.3 µM in assay [9]; 49.6 µM in assay [10]; 40.3 µM in assay [11]. In addition, the TGI in assay [12] was found to be 28.4 µM; in assay [13], 18.2 µM; in [18] it was 37.3 µM; in assay [14] it was 14.8 µM; in assay [15], 18.3 µM.
For `CCOC(=O)c1nc2ccc(C(F)(F)F)cc2nc1Nc1ccc(Cl)c(Cl)c1`, the TGI in assay [1], in assay [2], in assay [3], in [4], in [5] and in assay [16] was more than 100 µM each time. For the same compound, the TGI in [6], in assay [7], in assay [17], in [8], in assay [9] and in [10] was more than 100 µM throughout. Also, the TGI in assay [11] was more than 100 µM; in assay [12], 95.7 µM; in assay [13] it was more than 100 µM; in assay [14], more than 100 µM; in [15], more than 100 µM.
On to `COc1cc2c(c(O)c1OC)CC1CCC(=O)N1C2c1cccc2ccccc12` (stereo not given), for which the TGI in assay [1] is 26.2 µM; in assay [2], 54.5 µM; in assay [3], more than 100 µM; in [4], 34.5 µM; in [5] it was 52.4 µM; in assay [16], more than 100 µM. Also, the TGI was 52.2 µM in assay [6]; 45.3 µM in assay [7]; more than 100 µM in assay [17]; more than 100 µM in assay [8]; 61 µM in assay [9]; more than 100 µM in [10]. Further, the TGI turned out to be 41.8 µM in assay [11]; 45 µM in assay [12]; 41.6 µM in [13]; 31.7 µM in assay [14]; 55.4 µM in [15].
In the case of `O=c1[nH]cc(Cl)c(=O)[nH]1`, the TGI in assay [1], in [2], in assay [3], in assay [4], in [5] and in assay [16] was more than 100 µM in each case. In addition, the TGI in assay [6], in assay [7], in assay [17], in [8], in assay [9] and in assay [10] was more than 100 µM throughout. The TGI in assay [12], in assay [13], in assay [18], in [14] and in [15] was more than 100 µM throughout.
For `Cc1oc2c(c1C)S(=O)(=O)C(C#N)=C(N(C)C)N2`, the TGI in assay [1], in [2], in assay [4], in assay [5], in assay [16] and in assay [6] was more than 100 µM each time. Moreover, the TGI in assay [7], in assay [17], in assay [8], in [9], in assay [10] and in assay [11] was more than 100 µM throughout. Further, the TGI in assay [12], in assay [13], in [18], in assay [14] and in assay [15] was more than 100 µM throughout.
Turning to `CCCCCCCCCCCC[C@@H](O)[C@H]1CCC([C@H](O)CCCCC(=O)CCCCCCCC2=C[C@H](C)OC2=O)O1` (stereo not given in full), the TGI was more than 20.2 µM in [1]; more than 50 µM in assay [2]; more than 50 µM in assay [3]; more than 50 µM in assay [4]; more than 50 µM in assay [5]; more than 50 µM in [16]. Moreover, the TGI in [6], in [7], in [17], in assay [8], in [9] and in assay [10] was more than 50 µM in each case. Besides, the TGI in [12], in assay [13], in assay [18], in assay [14] and in assay [15] was more than 50 µM in each case.
For the compound `CC(=O)Nc1ccc2[nH]c(C(=O)N3CC(CCl)c4c3cc([N+](=O)[O-])c3ccccc43)cc2c1` (stereo not given), the TGI in assay [1] was more than 100 µM; in [2], more than 89.4 µM; in [3] it was 29 µM; in [4] it was more than 100 µM; in assay [5] it was more than 100 µM; in assay [16] it was more than 100 µM. The TGI was more than 100 µM in assay [6]; more than 100 µM in assay [7]; more than 100 µM in assay [17]; more than 65.1 µM in assay [8]; more than 100 µM in assay [9]; 1.15 µM in [10]. Also, the TGI in [12] is more than 100 µM; in assay [13] it was more than 100 µM; in assay [18] it was 58.8 µM; in [14], more than 100 µM.
For the compound `CC(=O)NC(C)(C)C1CCC(C)=C(c2ccccc2)C1` (stereo not given), the TGI in assay [1], in assay [2], in [3], in [4], in assay [5] and in [16] was more than 100 µM each time. The TGI in assay [6], in [7], in assay [17], in assay [8], in assay [9] and in assay [10] was more than 100 µM each time. The TGI in assay [11], in [12], in assay [13], in [14] and in assay [15] was more than 100 µM throughout.
Turning to `COc1cc(OC)c2c3c(OC)cc(OC)c4c(=O)c(O)c(C[C@@H](C)O)c(c5c(C[C@@H](C)O)c(O)c(=O)c1c25)c43`, the TGI in assay [1] was 28.4 µM; in [2], more than 100 µM; in assay [4], 73 µM; in [5], 35.3 µM; in assay [16] it was more than 100 µM; in [6] it was 42 µM. Besides, the TGI in [7] was 30.1 µM; in assay [17] it was 58.4 µM; in assay [8], more than 100 µM; in assay [9], more than 100 µM; in assay [10], more than 100 µM; in assay [11], more than 100 µM. The TGI in assay [12] is more than 100 µM; in assay [13] it was 46 µM; in assay [18], 44.7 µM; in [14], 34 µM; in assay [15] it was more than 100 µM.
Consider `C/C=C1\CN(C(=O)OC(C)(C)C)C1C(=O)OC(C)(C)C` (stereo not given), for which the TGI in [1], in [2], in assay [3], in assay [4], in assay [5] and in assay [16] was more than 100 µM each time. In addition, the TGI in [6], in assay [7], in [17], in assay [8], in assay [9] and in [10] was more than 100 µM each time. Moreover, the TGI in assay [11], in assay [12], in [13], in assay [14] and in assay [15] was more than 100 µM each time.
Take `CC1CC/C(=C\c2ccc(F)cc2)C(=O)/C1=C/c1ccc(F)cc1` (stereo not given): the TGI turned out to be 24.1 µM in [1]; 17.9 µM in assay [2]; 14.5 µM in [3]; 12.1 µM in assay [4]; 7 µM in assay [5]; 8.64 µM in [16]. Also, the TGI was 37 µM in assay [6]; 5.4 µM in assay [7]; 9.14 µM in assay [17]; 36.7 µM in assay [8]; 29.9 µM in assay [9]; 35.5 µM in assay [12]. In addition, the TGI stood at 10.1 µM in assay [13], 24.1 µM in [18], 13.5 µM in assay [14] and 23.6 µM in assay [15].
With `Cc1c(N=Nc2ccccc2)c(C)n(C2OC(CO)C(O)C(O)C2O)c(=S)c1C#N` (stereo not given), the TGI in assay [1] is 25 µM; in [3], more than 100 µM; in assay [4] it was more than 100 µM; in assay [5], 54.8 µM; in [16], more than 100 µM; in assay [6], more than 100 µM. Further, the TGI is 46.2 µM in assay [7]; more than 100 µM in [8]; more than 100 µM in assay [9]; more than 100 µM in [10]; 59.6 µM in assay [11]; 96.2 µM in assay [12]. The TGI in assay [13] was 45.8 µM; in [14], more than 100 µM; in [15], 73.1 µM.
`Cn1ncc2c(Cl)ncnc21`: the TGI in [1], in assay [2], in assay [4], in assay [5], in assay [16] and in assay [6] was more than 100 µM in each case. In addition, the TGI in assay [7], in [17], in assay [8], in assay [9], in assay [10] and in [11] was more than 100 µM each time. Also, the TGI in [12], in assay [13], in assay [18], in assay [14] and in assay [15] was more than 100 µM each time.
